{
  "source": "patent US20160175284A1",
  "about": "“ESTROGEN RECEPTOR MODULATORS AND USES THEREOF” (Genentech, Inc., priority 2014, published 2016)",
  "data": [
    {"molecular_target": "T1, estrogen receptor alpha (ESR1) in MCF7 breast cancer cells (Homo sapiens, UniProt P03372)", "T1 construct": "endogenous in cells; host or cells: MCF7 breast cancer cells", "T1 sequence (P03372 1-595)": "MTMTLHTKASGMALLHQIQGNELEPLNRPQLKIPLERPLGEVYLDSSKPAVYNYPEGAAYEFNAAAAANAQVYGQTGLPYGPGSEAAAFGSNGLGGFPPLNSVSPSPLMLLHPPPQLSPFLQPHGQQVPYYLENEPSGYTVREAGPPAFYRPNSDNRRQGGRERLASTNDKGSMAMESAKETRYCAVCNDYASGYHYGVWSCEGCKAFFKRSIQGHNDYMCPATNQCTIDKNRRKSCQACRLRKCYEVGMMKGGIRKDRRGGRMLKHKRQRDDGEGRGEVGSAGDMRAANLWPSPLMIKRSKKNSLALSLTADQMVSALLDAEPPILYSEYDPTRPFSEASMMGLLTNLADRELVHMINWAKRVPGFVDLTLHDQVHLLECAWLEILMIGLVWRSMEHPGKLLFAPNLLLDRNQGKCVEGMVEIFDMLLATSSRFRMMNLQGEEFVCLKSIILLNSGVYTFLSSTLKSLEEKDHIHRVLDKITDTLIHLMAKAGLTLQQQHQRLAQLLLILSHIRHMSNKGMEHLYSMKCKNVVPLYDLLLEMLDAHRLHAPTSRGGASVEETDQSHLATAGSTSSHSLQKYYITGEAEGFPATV", "experiment": "Breast Cancer Cell ERa High Content Fluorescence Imaging Assay (F10)", "type": "cell-based", "details": "4 hours, plateau of the maximal effect, DMSO and 5 nM Fulvestrant define 0% and 100% changes in ESR1", "method": "Breast Cancer Cell ERa High Content Fluorescence Imaging Assay (F10)\nCell plates were incubated at 37° C., for 4 hours. Fixation and permeabilization were carried out using a Biotek EL406 plate washer and dispenser as follows. […] Samples were incubated 30 minutes. Well contents was aspirated and 50 ul/well of Phosphate Buffered Saline (PBS) containing 0.5% w/v bovine serum albumen, 0.5% v/v Triton X-100 (Antibody Dilution Buffer) was added to each well. Samples were incubated for 30 minutes. Well contents were aspirated and washed 3 times with 100 ul/well of PBS. Immunofluorescence staining of estrogen receptor alpha (ESR1) was carried out using a Biotek EL406 plate washer and dispenser as follows. […] Samples were incubated for 2 hours at room temperature. Samples were washed 4 times with 100 ul/well of PBS. […] Samples were incubated for 2 hours at room temperature. Samples were washed 3 times with 100 ul/well of PBS using a Biotek EL406. Quantitative fluorescence imaging of ESR1 was carried out using a Cellomics Arrayscan V (Thermo). […] Channel 1 (DNA stain) was used to define the nuclear region (Circ). […] Data analysis was carried out using Genedata Screener Software, with DMSO and 5 nM Fulvestrant treated samples being used to define the 0% and 100% changes in ESR1. The “Robust Fit” method was used to define the inflexion point of curve (EC50) and the plateau of the maximal effect (Sinf).", "units": {"ER-alpha MCF7 HCS Sinf (%)": "%"}, "values": [
      {"smiles": "CC1=C(c2ccc(F)c(C#N)c2)C(c2ccc(OCCN3CC(CF)C3)cc2)Oc2ccc(O)cc21", "note": "(stereo not shown) [Example 33, 2-fluoro-5-[2-[4-[2-[3-(fluoromethyl)azetidin-1-yl]ethoxy]phenyl]-6-hydroxy-4-methyl-2H-chromen-3-yl]benzonitrile]", "ER-alpha MCF7 HCS Sinf (%)": "−96"},
      {"smiles": "CC1=C(c2ccc(F)c(C#N)c2)[C@@H](c2ccc(OCCN3CC(CF)C3)cc2)Oc2ccc(O)cc21", "note": "[Example 34, (R)-2-fluoro-5-(2-(4-(2-(3-(fluoromethyl)azetidin-1-yl)ethoxy)phenyl)-6-hydroxy-4-methyl-2H-chromen-3-yl)benzonitrile]", "ER-alpha MCF7 HCS Sinf (%)": "−88"},
      {"smiles": "CC1=C(c2ccc(F)c(C#N)c2)[C@H](c2ccc(OCCN3CC(CF)C3)cc2)Oc2ccc(O)cc21", "note": "[Example 35, (S)-2-fluoro-5-(2-(4-(2-(3-(fluoromethyl)azetidin-1-yl)ethoxy)phenyl)-6-hydroxy-4-methyl-2H-chromen-3-yl)benzonitrile]", "ER-alpha MCF7 HCS Sinf (%)": "−97"},
      {"smiles": "CC1=C(c2cccc(Cl)c2)[C@@H](c2ccc(OCCN3CC(CF)C3)cc2)Oc2ccc(O)cc21", "note": "[Example 36, (R)-3-(3-chlorophenyl)-2-(4-(2-(3-(fluoromethyl)azetidin-1-yl)ethoxy)phenyl)-4-methyl-2H-chromen-6-ol]", "ER-alpha MCF7 HCS Sinf (%)": "−95"},
      {"smiles": "CC1=C(c2cccc(Cl)c2)[C@H](c2ccc(OCCN3CC(CF)C3)cc2)Oc2ccc(O)cc21", "note": "[Example 37, (S)-3-(3-chlorophenyl)-2-(4-(2-(3-(fluoromethyl)azetidin-1-yl)ethoxy)phenyl)-4-methyl-2H-chromen-6-ol]", "ER-alpha MCF7 HCS Sinf (%)": "−98"},
      {"smiles": "CC1=C(c2ccc(F)cc2Cl)[C@@H](c2ccc(OCCN3CC(CF)C3)cc2)Oc2ccc(O)cc21", "note": "[Example 40, (2R)-3-(2-chloro-4-fluoro-phenyl)-2-[4-[2-[3-(fluoromethyl)azetidin-1-yl]ethoxy]phenyl]-4-methyl-2H-chromen-6-ol]", "ER-alpha MCF7 HCS Sinf (%)": "−98"},
      {"smiles": "CC1=C(c2ccc(F)cc2Cl)[C@H](c2ccc(OCCN3CC(CF)C3)cc2)Oc2ccc(O)cc21", "note": "[Example 41, (2S)-3-(2-chloro-4-fluoro-phenyl)-2-[4-[2-[3-(fluoromethyl)azetidin-1-yl]ethoxy]phenyl]-4-methyl-2H-chromen-6-ol]", "ER-alpha MCF7 HCS Sinf (%)": "−100"},
      {"smiles": "CC1=C(c2cc(F)ccc2F)[C@@H](c2ccc(OCCN3CC(CF)C3)cc2)Oc2ccc(O)cc21", "note": "[Example 42, (2R)-3-(2,5-difluorophenyl)-2-[4-[2-[3-(fluoromethyl)azetidin-1-yl]ethoxy]phenyl]-4-methyl-2H-chromen-6-ol]", "ER-alpha MCF7 HCS Sinf (%)": "−94"},
      {"smiles": "CC1=C(c2cc(F)ccc2F)[C@H](c2ccc(OCCN3CC(CF)C3)cc2)Oc2ccc(O)cc21", "note": "[Example 43, (2S)-3-(2,5-difluorophenyl)-2-[4-[2-[3-(fluoromethyl)azetidin-1-yl]ethoxy]phenyl]-4-methyl-2H-chromen-6-ol]", "ER-alpha MCF7 HCS Sinf (%)": "−94"},
      {"smiles": "COc1cc(C2=C(C)c3cc(O)ccc3OC2c2ccc(OCCN3CC(CF)C3)cc2)ccc1O", "note": "(stereo not shown) [Example 46, 2-(4-(2-(3-(fluoromethyl)azetidin-1-yl)ethoxy)phenyl)-3-(4-hydroxy-3-methoxyphenyl)-4-methyl-2H-chromen-6-ol]", "ER-alpha MCF7 HCS Sinf (%)": "−98"}
    ]}
  ]
}
